This note sets out measurements from patent publication US20200113901A1, “METHODS OF USING EHMT2 INHIBITORS” (Epizyme, Inc., priority 2017, published 2020).

Assay [1] deals with H3K9me2 (H3 di methyl K9). The assay can be described thus: H3K9me2 western blot in Prader Willi Syndrome patient fibroblast cell lines. The format is cell-based, human. Conditions: PWS patient fibroblast cell lines GM21889 and GM21890; 0.25 μM, 1 μM, 5 μM; 7 days; western blot densitometry; FIG. 1. As to the method: (§1) Fibroblast cell lines were obtained from Coriell Institute (GM21889 and GM21890). Cells were plated in 6 well plates at 0.13 or 0.26 e6 cells per well. Cells were treated for 7 days with 0, 0.25 μM, 1 μM, or 5 μM Compound No. 205 or 4 μM UNC0638 (positive control) with reseeding into 100 mm dishes and retreatment at day 4. On day 7 cells were lysed in 1X RIPA buffer (Millipore, #20-188) with 0.1% SDS and Protease Inhibitor Cocktail tablet (Roche, #04693159001), and sonicated on ice before being spun at 4° C. Clarified supernatant was assayed for protein concentration by BCA (Pierce, #23225). 25 μg of lysate was used for western blots. Antibodies used for Western blotting include H3 (4499; Cell Signaling) at 1:1000, H3K9me2 (ab1220; Abcam) at 1:1000, SNRPN (PA 1775; BosterBio) at 1:1000, and β-actin (ab8224; Abcam) at 1:2500. Imaging was performed using a Licor Odyssey, and changes in the target band were quantified by densitometry. Ratios between H3K9me2 and H3 were calculated and compound treated samples were normalized to controls (DMSO). Increases in SNRPN protein expression was observed upon increasing concentrations of Compound No. 205. See, e.g., FIGS. 1 and 2.
For orientation: Immunoblotting shows a protein as a band on a membrane.

The subject of a further assay is SNRPN protein. The assay is described as follows: SNRPN protein induction (western blot) in Prader Willi Syndrome patient fibroblast cell lines. The class given is cell-based, human. As to conditions: PWS patient fibroblast cell lines GM21889 and GM21890, increasing concentrations 0.25 μM, 1 μM, 5 μM, 7 days, FIG. 2. As to the method:
as §1

For the compound `CNc1cc(C)nc(Nc2ccc(OC)c(OCCCN3CCCC3)c2)n1` [Compound No. 205], the “H3 di methyl K9 (ratio H3K9me2 to H3, normalized to DMSO control)” value in assay [1] is given as “decrease”. Further, the SNRPN protein expression entry in the assay with SNRPN protein is listed as “Increases”.
